Experimental data reported in US6911450B1, “Pyrimidine acyclonucleoside derivatives, preparation method and use thereof” (Universite de Geneve, priority 2001, dated 2005).
Like-named read-outs stand apart in the source and are kept apart here.

Key:
[1] = Cytotoxicity assay revealed by MTT after seven days of culture; format: cell-based, human; details: human, PBMC, 50% diminution of growth and viability
Experimental: (§1) Concurrently to the screening, and in the same conditions, cytotoxicity assays of the test compounds were carried out.
(§2) This assay has allowed to determine the concentration of the product causing a diminution of 50% of the growth and the viability of PBMC (CC50).
(§3) The PBMC were isolated as described in Ulmer and col., Immunobiology, 166(3), 238-250 (1984) from a healthy donor by a Ficoll gradient (Nicomed Pharma AS).
(§4) The PBMC were activated with phytohemagglutinine for three days and then cultivated in a 96-well plate, in a base medium (RPMI) supplemented with recombinant human Interleukin-2.
(§5) Throughout the culture, the cells were maintained at 37° C., in an atmosphere saturated in humidity, and under 5% CO2.

HIV-1 lai strain = assay: Anti-HIV test on PBMC, viral replication measured by Reverse Transcriptase (RT) activity in culture supernatants; format: cell-based; details: for IC50 / IC90: Human immunodeficiency virus 1, 168 h, against HIV-Lai on PBMC, 7 days, RT activity assay; for activity relative to that of its congeners or of its rivals: from Table 1
Experimental: The object of the screening is to evaluate the antiretroviral activity of the compounds of the present invention and of the Comparative Compounds on the HIV-1 lai strain cultivated on peripheral blood mononucleated cells (PBMC). For this purpose, the test compounds were incubated for seven days (duration of the anti-HIV test) with the PBMC in exponential phase of growth. The ability of the compounds to inhibit the viral replication was then measured in the culture supernatants either by an assay of the “Reverse Transcriptase” (RT) activity with the kit RetroSys TR (INNOVAGEN) or by an assay of the protein P24 with the kit Innotest HIV Antigen mAb Screening (IMMUNOGENETICS). The concentrations of the test compound causing 50 and 90% inhibition of the viral replication were determined. It concerns inhibition concentrations IC50 and IC90, respectively. The PBMC were isolated as described in Ulmer and col., Immunobiology, 166(3), 238-250 (1984) from a healthy donor by a Ficoll gradient (Nicomed Pharma AS). The PBMC were activated with phytohemagglutinine for three days and then cultivated in a 96-well plate, in a base medium (RPMI) supplemented with recombinant human Interleukin-2. Throughout the culture, the cells were maintained at 37° C., in an atmosphere saturated in humidity, and under 5% CO2. The PBMC were pre-treated for one hour in the presence of the test compounds at various concentrations, and then infected with 100 TCID50 of HIV-1-Lai [S. Wain-Hobson and col., Science 17, 252 (5008): 961-965 (1991)]. Three days after the infection with HIV-1, the half of the culture medium was changed and, at the day 7, the supernatants were taken and frozen at −20° C. Then, the viral replication was measured: a) by assaying the “Reverse Transcriptase” (RT) activity in the culture supernatants by means of the kit RetroSys (Innovagen). The RT contained in the supernatant synthesizes, in the presence of bromodeoxyuridine triphosphate (BrdUTP), a complementary strand DNA to a matrix immobilized on the bottom of the wells of a 96-well plate. The incorporation of BrdU is quantified by the fixation of an antibody anti-BrdU conjugated to the alkaline phosphatase. The activity of the attached alkaline phosphatase, measured by colorimetry, is proportional to the RT activity in the culture supernatant. The results described below are the results of at least two experiments which are distinct and carried out in triplicate.

HIV-1 = details: cited from earlier work; for activity against HIV-1: prior art
[2] = Combination test with AZT, ddI and ddC; format: cell-based
[3] = system: Bone marrow cells of Balb/c mice; assay: Toxicity test on bone marrow cells (proliferation by Trypan blue count, differentiation by flow cytometry); format: cell-based; details: for cell proliferation / proportions of lymphocytes B, myelocytes, neutrophiles and macrophages induced by the cytokines: mouse bone marrow cells, 5 days; for cell proliferation: 1×10^−12 to 1×10^−5 M, versus absence of compound; for proportions of lymphocytes B, myelocytes, neutrophiles and macrophages induced by the cytokines: whatever the concentration, presence versus absence of compound
Experimental: Toxicity tests of Compounds No. 3 and 5 of the present invention were further carried out on bone marrow cells according to the following working method. Bone marrow cells of Balb/c mice were cultivated at the rate of 5×10^5 cells/ml in cultures of 1 ml in RPMI 1640 medium supplemented with 1 mM glutamine, 10% fetal calf serum, penicillin and streptomycin (GIBCO, USA). The cells were stimulated by addition of 1 ng/ml of Stem cell factor (c-kit ligand), IL3 and GM-CSF (Pharmingen, USA) in the presence of increasing concentrations of the Compounds 3 and 5 of the present invention ranging from 1×10^−12 to 1×10^−5 M. After 5 days of culture at 37° C., 5% CO2, the cells were recovered. The proliferation was evaluated by numeration of living cells in the presence of Trypan blue. The differentiation of the cells was evaluated by Flow Cytometry (Facs-Calibur, BECTON DICKINSON, USA) by double labeling of the cells with antibodies anti-CD38 conjugated with phycoerythrine (PE), anti-Gr1 conjugated with fluoresceine 5 (Fl), anti-Gr1-PE and anti-CD11b-Fl (Pharmingen, USA).

PBMC = assay: Cytotoxicity assay revealed by MTT after seven days of culture; format: cell-based, human; details: 7 days, 50% diminution of growth and viability
Experimental: as §1, §2, §3, §4, §5

Structure (SMILES)	IC50 (HIV-1 lai strain) [nM]	IC90 (HIV-1 lai strain) [nM]	melting point [°C]	CC50 at 7 days [1] [nM]	also measured
CCc1c(Cc2ccccc2)n(COCCN(O)C(N)=O)c(=O)[nH]c1=O [Comparative 3, 1-(2-N^1-hydroxyureidoethyloxymethyl)-6-benzyl-5-ethyluracile]	70		276 to 277	> 250000	IC50 (HIV-1; against HIV-1, prior art): 70 nM; activity against HIV-1 (HIV-1): only very moderately active
CCOCn1c(Cc2ccccc2)c(C(C)C)c(=O)[nH]c1=O [Comparative 4, 1-ethyloxymethyl-6-benzyl-5-isopropyluracil, reference compound]	2			> 30000	
CC(=O)ON(CCCOCn1c(Cc2cc(C)cc(C)c2)c(C(C)C)c(=O)[nH]c1=O)C(N)=O [Compound 4, 1-(3-N^1-acetoxyureidopropyloxymethyl)-6-(3,5-dimethylbenzyl)-5-isopropyluracile]	0.03	0.6	77 to 79	30000	
Cc1cc(C)cc(Cc2c(C(C)C)c(=O)[nH]c(=O)n2COCCCN(OC(=O)C(C)(C)C)C(N)=O)c1 [Compound 5, 1-(3-N^1-pivaloyloxyureidopropyloxymethyl)-6-(3,5-dimethylbenzyl)-5-isopropyluracil]					CC50 (PBMC): 65000 nM; activity relative to that of its congeners or of its rivals (HIV-1 lai strain): 1,000,000 times; toxic effects on bone marrow cells of mice [3]: no significant toxic effects; cell proliferation [3]: identical to the one observed in the absence; proportions of lymphocytes B, myelocytes, neutrophiles and macrophages induced by the cytokines [3]: identical in the presence or in the absence
Cc1cn(C(C)OCCN(O)C(N)=O)c(=O)[nH]c1=O (stereo not shown) [Formula B]					activity against HIV-1 (HIV-1): totally inactive

More lines, main results first:

IC50 (HIV-1 lai strain) [nM]	IC90 (HIV-1 lai strain) [nM]	melting point [°C]	Structure (SMILES)	CC50 at 7 days [1] [nM]	also measured
0.92	15	147 to 148	CCc1c(Cc2cc(C)cc(C)c2)n(COCCN(O)C(N)=O)c(=O)[nH]c1=O [Comparative 1, 1-(2-N^1-hydroxyureidoethyloxymethyl)-6-(3,5-dimethylbenzyl)-5-ethyluracil]	> 500000	
2.3	30	148 to 150	CCc1c(Cc2cc(C)cc(C)c2)n(COCCCCN(O)C(N)=O)c(=O)[nH]c1=O [Comparative 2, 1-(4-N^1-hydroxyureidobutyloxymethyl)-6-(3,5-dimethylbenzyl)-5-ethyluracil]	> 50000	
2.3	9		CCc1c(Cc2cc(C)cc(C)c2)n(COCCCNC(=O)NO)c(=O)[nH]c1=O [Compound 1, 1-(3-N^3-hydroxyureidopropyloxymethyl)-6-(3,5-dimethylbenzyl)-5-ethyl-uracil]	260000	
0.24	1.7	165 to 167	CCc1c(Cc2cc(C)cc(C)c2)n(COCCCN(O)C(N)=O)c(=O)[nH]c1=O [Compound 2, 1-(3-N1-hydroxyureidopropyloxymethyl)-6-(3,5-dimethylbenzyl)-5-ethyl-uracil]	> 300000	synergy with AZT, ddI and ddC [2]: exhibited a synergy
	0.0039	88 to 90	Cc1cc(C)cc(Cc2c(C(C)C)c(=O)[nH]c(=O)n2COCCCN(O)C(N)=O)c1 [Compound 3, 1-(3-N^1-hydroxyureidopropyloxymethyl)-6-(3,5-dimethylbenzyl)-5-isopropyluracil]	220000	activity relative to that of its congeners or of its rivals (HIV-1 lai strain): 100,000 times; toxic effects on bone marrow cells of mice ([3]; even at concentrations 1×10^6 time higher than those inhibiting HIV replication in human lymphocytes in vitro): no significant toxic effects; cell proliferation [3]: identical to the one observed in the absence; proportions of lymphocytes B, myelocytes, neutrophiles and macrophages induced by the cytokines [3]: identical in the presence or in the absence
